Laboratory results taken from patent US20240158370A1, “CK1 alpha AND DUAL CK1 alpha / GSPT1 DEGRADING COMPOUNDS” (Innovo Therapeutics, Inc., priority 2022, published 2024).

Key:
GSPT1 = GSPT1 (Homo sapiens, UniProt P15170+Q96SW2); assay: HiBiT degradation assay, GSPT1, Procedure A; format: cell-based; parameters: HiBit-GSPT1 KI HEK293(LgBit) Cells; host or cells: HEK293(LgBit) knock-in cells; settings: six hours
Procedure, shortened: (§1)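 DC50 and Ymin (% remaining) were derived by four-parameter fitting of luminescence data. The data come from a six-hour, 37° C compound exposure of cells in DMEM/10% FBS over a ten-point range, 10 μM to 0.005 μM, followed by Nano-Glo HiBiT lytic detection.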

CK1α = biological target: T1, CK1α (Homo sapiens, UniProt P48729+Q96SW2); assay: HiBiT degradation assay, CK1α, Procedure A; format: cell-based; settings: six hours
T1 construct: CSNK1A1-HiBit KI HEK293(LgBit) Cells; host or cells: HEK293(LgBit) knock-in cells
T1 sequence (P48729 whole entry): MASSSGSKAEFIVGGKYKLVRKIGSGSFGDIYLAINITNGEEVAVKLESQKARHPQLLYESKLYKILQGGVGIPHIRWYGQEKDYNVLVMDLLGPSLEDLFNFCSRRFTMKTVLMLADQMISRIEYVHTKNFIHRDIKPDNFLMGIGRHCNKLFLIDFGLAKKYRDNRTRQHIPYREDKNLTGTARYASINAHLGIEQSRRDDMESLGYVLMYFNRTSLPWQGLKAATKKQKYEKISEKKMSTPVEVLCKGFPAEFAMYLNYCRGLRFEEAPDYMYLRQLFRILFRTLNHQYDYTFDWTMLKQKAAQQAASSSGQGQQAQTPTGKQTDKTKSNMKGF
T1 sequence (Q96SW2 whole entry): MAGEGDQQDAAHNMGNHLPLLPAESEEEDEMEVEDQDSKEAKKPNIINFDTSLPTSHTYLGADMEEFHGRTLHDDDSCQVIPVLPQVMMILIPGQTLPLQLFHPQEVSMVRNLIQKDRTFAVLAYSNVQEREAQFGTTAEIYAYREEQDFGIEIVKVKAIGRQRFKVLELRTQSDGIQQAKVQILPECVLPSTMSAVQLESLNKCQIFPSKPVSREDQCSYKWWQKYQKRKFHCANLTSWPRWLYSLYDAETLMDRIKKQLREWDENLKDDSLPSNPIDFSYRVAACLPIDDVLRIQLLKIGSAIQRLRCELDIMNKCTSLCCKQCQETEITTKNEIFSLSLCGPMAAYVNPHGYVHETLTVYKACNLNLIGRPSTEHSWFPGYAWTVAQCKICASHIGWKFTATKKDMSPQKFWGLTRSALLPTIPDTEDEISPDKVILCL
T1 sequence (Q16531 whole entry partner): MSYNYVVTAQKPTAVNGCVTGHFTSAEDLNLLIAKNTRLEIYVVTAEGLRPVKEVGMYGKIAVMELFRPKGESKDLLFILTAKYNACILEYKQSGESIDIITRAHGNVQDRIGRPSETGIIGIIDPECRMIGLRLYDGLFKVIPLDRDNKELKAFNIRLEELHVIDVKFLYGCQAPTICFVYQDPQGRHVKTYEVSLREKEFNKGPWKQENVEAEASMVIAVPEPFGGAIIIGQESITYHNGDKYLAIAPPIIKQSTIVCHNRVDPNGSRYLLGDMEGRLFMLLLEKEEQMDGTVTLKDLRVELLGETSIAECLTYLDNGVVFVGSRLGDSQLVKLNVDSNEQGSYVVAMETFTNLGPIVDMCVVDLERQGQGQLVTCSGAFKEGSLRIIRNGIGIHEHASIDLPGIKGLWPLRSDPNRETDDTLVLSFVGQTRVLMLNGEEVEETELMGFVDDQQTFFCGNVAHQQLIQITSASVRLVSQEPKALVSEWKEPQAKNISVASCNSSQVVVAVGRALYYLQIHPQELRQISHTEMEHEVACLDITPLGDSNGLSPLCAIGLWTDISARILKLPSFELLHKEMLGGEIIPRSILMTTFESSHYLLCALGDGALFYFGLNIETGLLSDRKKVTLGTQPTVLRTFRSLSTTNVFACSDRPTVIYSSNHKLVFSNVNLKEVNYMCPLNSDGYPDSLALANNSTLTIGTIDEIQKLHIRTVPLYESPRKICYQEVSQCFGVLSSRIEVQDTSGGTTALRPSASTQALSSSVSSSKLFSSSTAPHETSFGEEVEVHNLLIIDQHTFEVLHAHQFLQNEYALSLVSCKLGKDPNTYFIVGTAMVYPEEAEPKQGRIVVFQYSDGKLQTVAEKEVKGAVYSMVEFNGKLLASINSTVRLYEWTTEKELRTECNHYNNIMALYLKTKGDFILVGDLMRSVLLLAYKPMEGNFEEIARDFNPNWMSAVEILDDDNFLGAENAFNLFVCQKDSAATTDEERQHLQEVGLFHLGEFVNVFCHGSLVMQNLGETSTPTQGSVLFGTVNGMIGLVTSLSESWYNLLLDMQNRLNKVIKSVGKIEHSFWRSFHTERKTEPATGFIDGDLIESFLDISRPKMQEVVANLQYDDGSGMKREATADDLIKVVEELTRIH
Procedure, shortened: as §1

Chain of GSPT1 (P15170 whole entry): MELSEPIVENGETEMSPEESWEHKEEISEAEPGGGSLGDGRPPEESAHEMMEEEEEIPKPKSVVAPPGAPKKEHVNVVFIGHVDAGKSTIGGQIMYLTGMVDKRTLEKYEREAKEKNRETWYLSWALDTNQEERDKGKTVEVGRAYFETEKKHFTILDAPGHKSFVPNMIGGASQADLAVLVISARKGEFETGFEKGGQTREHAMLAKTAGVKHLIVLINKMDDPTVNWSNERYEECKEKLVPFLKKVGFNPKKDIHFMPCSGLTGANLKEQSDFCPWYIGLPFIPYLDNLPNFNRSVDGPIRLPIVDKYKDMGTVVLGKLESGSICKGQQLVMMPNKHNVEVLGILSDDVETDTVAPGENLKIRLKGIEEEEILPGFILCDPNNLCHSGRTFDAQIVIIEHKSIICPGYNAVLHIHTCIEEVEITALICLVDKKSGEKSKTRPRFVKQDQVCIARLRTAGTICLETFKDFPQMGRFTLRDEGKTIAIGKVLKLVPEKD
Chain of GSPT1 (Q96SW2 whole entry): as the sequence (Q96SW2 whole entry) above
Chain of GSPT1 (Q16531 whole entry partner): as the sequence (Q16531 whole entry partner) above

Compound | DC50 (GSPT1) [nM] | GSPT1 Ymin (GSPT1) | CK1α Ymin (CK1α) | DC50 (CK1α) [nM]
Cc1occc1-c1c(-c2ccc3c(c2)CN(C2CCC(=O)NC2=O)C3=O)ncn1C (stereo not shown) [Example 483] | < 25 | F (F = >75-100% remaining) | D (D = >10- 25% remaining) | < 25
Cn1cnc(-c2ccc3c(c2)CN(C2CCC(=O)NC2=O)C3=O)c1-c1cnc(N)nc1 (stereo not shown) [Example 485] | ≥ 25 | F (F = >75-100% remaining) | E (E = >25-75% remaining) | ≥ 25
COc1cncc(-c2c(-c3ccc4c(c3)CN(C3CCC(=O)NC3=O)C4=O)ncn2C)c1 (stereo not shown) [Example 486] | < 25 | F (F = >75-100% remaining) | D (D = >10- 25% remaining) | < 25
CC(C)n1ccc(-c2c(-c3ccc4c(c3)CN(C3CCC(=O)NC3=O)C4=O)ncn2C)n1 (stereo not shown) [Example 487] | ≥ 25 | F (F = >75-100% remaining) | E (E = >25-75% remaining) | < 25
Cn1cnc(-c2ccc3c(c2)CN(C2CCC(=O)NC2=O)C3=O)c1-c1ccc2occc2c1 (stereo not shown) [Example 489] | < 25 | E (E = >25-75% remaining) | C (C = 0-10% remaining) | < 25
Cn1cnc(-c2ccc3c(c2)CN(C2CCC(=O)NC2=O)C3=O)c1-c1ccc2ncnn2c1 (stereo not shown) [Example 490] | ≥ 25 | F (F = >75-100% remaining) | E (E = >25-75% remaining) | ≥ 25
CC(C)Cn1cc(-c2c(-c3ccc4c(c3)CN(C3CCC(=O)NC3=O)C4=O)ncn2C)cn1 (stereo not shown) [Example 491] | ≥ 25 | E (E = >25-75% remaining) | D (D = >10- 25% remaining) | < 25
Cn1cnc(-c2ccc3c(c2)CN(C2CCC(=O)NC2=O)C3=O)c1-c1cnn(C(C)(C)C)c1 (stereo not shown) [Example 492] | ≥ 25 | F (F = >75-100% remaining) | F (F = >75-100% remaining) | ≥ 25
Cn1cnc(-c2ccc3c(c2)CN(C2CCC(=O)NC2=O)C3=O)c1-c1ccc2cccnc2c1 (stereo not shown) [Example 493] | ≥ 25 | F (F = >75-100% remaining) | D (D = >10- 25% remaining) | < 25
Cn1cnc(-c2ccc3c(c2)CN(C2CCC(=O)NC2=O)C3=O)c1-c1ccc2nccnc2c1 (stereo not shown) [Example 494] | ≥ 25 | F (F = >75-100% remaining) | E (E = >25-75% remaining) | ≥ 25
Cn1cnc(-c2ccc3c(c2)CN(C2CCC(=O)NC2=O)C3=O)c1-c1ccc2c(ccn2C)c1 (stereo not shown) [Example 496] | < 25 | E (E = >25-75% remaining) | C (C = 0-10% remaining) | < 25
Cn1cnc(-c2ccc3c(c2)CN(C2CCC(=O)NC2=O)C3=O)c1-c1cnn(CC(F)F)c1 (stereo not shown) [Example 497] | ≥ 25 | F (F = >75-100% remaining) | D (D = >10- 25% remaining) | ≥ 25
Cn1cnc(-c2ccc3c(c2)CN(C2CCC(=O)NC2=O)C3=O)c1-c1ccc2cnn(C)c2c1 (stereo not shown) [Example 498] | < 25 | F (F = >75-100% remaining) | D (D = >10- 25% remaining) | < 25
Cn1cnc(-c2ccc3c(c2)CN(C2CCC(=O)NC2=O)C3=O)c1-c1cnc2c(ccn2C)c1 (stereo not shown) [Example 499] | ≥ 25 | F (F = >75-100% remaining) | E (E = >25-75% remaining) | < 25
Cn1cnc(-c2ccc3c(c2)CN(C2CCC(=O)NC2=O)C3=O)c1-c1ccc2ncn(C)c2c1 (stereo not shown) [Example 500] | ≥ 25 | F (F = >75-100% remaining) | C (C = 0-10% remaining) | < 25
Cc1nc2ccc(-c3c(-c4ccc5c(c4)CN(C4CCC(=O)NC4=O)C5=O)ncn3C)cc2[nH]1 (stereo not shown) [Example 501] | ≥ 25 | F (F = >75-100% remaining) | C (C = 0-10% remaining) | < 25

Compound | DC50 (GSPT1) [nM] | GSPT1 Ymin (GSPT1) | CK1α Ymin (CK1α) | DC50 (CK1α) [nM]
Cn1cnc(-c2ccc3c(c2)CN(C2CCC(=O)NC2=O)C3=O)c1-c1ccc2ncsc2c1 (stereo not shown) [Example 502] | < 25 | E (E = >25-75% remaining) | C (C = 0-10% remaining) | < 25
Cn1cnc(-c2ccc3c(c2)CN(C2CCC(=O)NC2=O)C3=O)c1-c1cnn(Cc2cccnc2)c1 (stereo not shown) [Example 503] | ≥ 25 | F (F = >75-100% remaining) | E (E = >25-75% remaining) | ≥ 25
Cn1cnc(-c2ccc3c(c2)CN(C2CCC(=O)NC2=O)C3=O)c1-c1cc[nH]n1 (stereo not shown) [Example 504] | ≥ 25 | F (F = >75-100% remaining) | D (D = >10- 25% remaining) | ≥ 25
Cn1ccc(-c2c(-c3ccc4c(c3)CN(C3CCC(=O)NC3=O)C4=O)ncn2C)n1 (stereo not shown) [Example 505] | < 25 | F (F = >75-100% remaining) | D (D = >10- 25% remaining) | < 25
Cn1cnc(-c2ccc3c(c2)CN(C2CCC(=O)NC2=O)C3=O)c1-c1cccs1 (stereo not shown) [Example 506] | < 25 | E (E = >25-75% remaining) | C (C = 0-10% remaining) | < 25
Cc1ncccc1-c1c(-c2ccc3c(c2)CN(C2CCC(=O)NC2=O)C3=O)ncn1C (stereo not shown) [Example 507] | ≥ 25 | F (F = >75-100% remaining) | E (E = >25-75% remaining) | < 25
COc1ccsc1-c1c(-c2ccc3c(c2)CN(C2CCC(=O)NC2=O)C3=O)ncn1C (stereo not shown) [Example 508] | ≥ 25 | F (F = >75-100% remaining) | D (D = >10- 25% remaining) | < 25
Cn1cnc(-c2ccc3c(c2)CN(C2CCC(=O)NC2=O)C3=O)c1-c1c[nH]c2ccccc12 (stereo not shown) [Example 509] | < 25 | E (E = >25-75% remaining) | D (D = >10- 25% remaining) | < 25
Cn1cnc(-c2ccc3c(c2)CN(C2CCC(=O)NC2=O)C3=O)c1-c1ccc2[nH]ncc2c1 (stereo not shown) [Example 510] | ≥ 25 | E (E = >25-75% remaining) | C (C = 0-10% remaining) | < 25
Cn1cnc(-c2ccc3c(c2)CN(C2CCC(=O)NC2=O)C3=O)c1-c1cnn(C2CCC2)c1 (stereo not shown) [Example 511] | ≥ 25 | F (F = >75-100% remaining) | D (D = >10- 25% remaining) | < 25
Cc1c[nH]c2cc(-c3c(-c4ccc5c(c4)CN(C4CCC(=O)NC4=O)C5=O)ncn3C)ccc12 (stereo not shown) [Example 512] | < 25 | F (F = >75-100% remaining) | C (C = 0-10% remaining) | < 25
Cn1cnc(-c2ccc3c(c2)CN(C2CCC(=O)NC2=O)C3=O)c1-c1ccc2c(cnn2C)c1 (stereo not shown) [Example 513] | ≥ 25 | F (F = >75-100% remaining) | C (C = 0-10% remaining) | < 25
Cn1cnc(-c2ccc3c(c2)CN(C2CCC(=O)NC2=O)C3=O)c1-c1ccc2c(c1)CCCO2 (stereo not shown) [Example 514] | ≥ 25 | E (E = >25-75% remaining) | C (C = 0-10% remaining) | < 25
Cn1cnc(-c2ccc3c(c2)CN(C2CCC(=O)NC2=O)C3=O)c1-c1ccc2sccc2c1 (stereo not shown) [Example 515] | < 25 | E (E = >25-75% remaining) | C (C = 0-10% remaining) | < 25
Cn1cnc(-c2ccc3c(c2)CN(C2CCC(=O)NC2=O)C3=O)c1-c1cccc(-n2cccn2)c1 (stereo not shown) [Example 516] | < 25 | F (F = >75-100% remaining) | D (D = >10- 25% remaining) | < 25
